# Reference: the supplement of paper PMC10307832
# Legend:
# Test in all cases: relative viability (nuclei count vs DMSO), 5 days (fraction); higher = more cells survive
# [1] = compound: C1CC1C(=O)NC2=NNC3=C2C=CC(=C3)C4=CC(=CC=C4)C(=O)NC5CC5 [XMD13-2] + NC(=O)Nc1cc(-c2cccc(F)c2)sc1C(=O)N[C@H]1CCCNC1 [AZD7762] (partner 0.2 µM)
# Method in brief: (§1)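 Lung cancer cell lines, seeded in 1536-well plates, were treated the following day by pin tool with a single drug or with five library-drug doses (not always all listed) in √10 steps on top of a fixed anchor-drug dose. Cells were fixed and nuclei stained in one step after 5 days, and nuclei were counted. Relative viability is the nuclei count for treated wells divided by that for vehicle wells, reported as medians of duplicate plates.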
# [2] = compound: Cc1ccc(C(=O)Nc2cccc(C(F)(F)F)c2)cc1Nc1cncc(C(N)=O)c1 [ALW-II-49-7] + COc1cc2c(Oc3ccc(NC(=O)C4(C(=O)Nc5ccc(F)cc5)CC4)cc3F)ccnc2cc1OCCCN1CCOCC1 [Foretinib] (partner 0.25 µM)
# Method in brief: as §1
# [3] = compound: Cc1ccc(C(=O)Nc2cccc(C(F)(F)F)c2)cc1Nc1cncc(C(N)=O)c1 [ALW-II-49-7] + C[C@]1(O)C[C@@H](c2nc(-c3ccc4ccc(-c5ccccc5)nc4c3)c3c(N)nccn32)C1 [Linsitinib] (partner 1 µM)
# Method in brief: as §1
# [4] = compound: Cc1nc(Nc2ncc(C(=O)Nc3c(C)cccc3Cl)s2)cc(N2CCN(CCO)CC2)n1 [Dasatinib] + CS(=O)(=O)N1CCN(Cc2cc3nc(-c4cccc5[nH]ncc45)nc(N4CCOCC4)c3s2)CC1 [Pictilisib] (partner 1 µM)
# Method in brief: as §1
Cell Line,relative viability ([1]; first compound 0.05 µM),relative viability ([1]; first compound 0.1581 µM),relative viability ([1]; first compound 0.5 µM),relative viability ([1]; first compound 1.581 µM),relative viability ([1]; first compound 5 µM),relative viability ([2]; first compound 0.08 µM),relative viability ([2]; first compound 0.253 µM),relative viability ([2]; first compound 2.53 µM),relative viability ([2]; first compound 8 µM),relative viability ([3]; first compound 0.08 µM),relative viability ([3]; first compound 0.253 µM),relative viability ([3]; first compound 0.8 µM),relative viability ([3]; first compound 2.53 µM),relative viability ([3]; first compound 8 µM),relative viability ([4]; first compound 0.005 µM),relative viability ([4]; first compound 0.01581 µM),relative viability ([4]; first compound 0.05 µM),relative viability ([4]; first compound 0.1581 µM),relative viability ([4]; first compound 0.5 µM),relative viability ([2]; first compound 0.8 µM)
HCC-78,0.763,0.973,0.557,0.475,0.705,0.524,0.487,0.528,0.586,0.485,0.473,0.609,0.5,0.487,0.185,0.212,0.183,0.159,0.178,–
HCC-366,0.325,0.388,0.308,0.427,0.355,1,1.02,1,1.08,0.68,0.636,0.698,0.682,0.791,0.0952,0.074,0.0543,0.0636,0.0661,0.941
HCC-827,0.199,0.22,0.207,0.202,0.224,1.02,1.13,0.954,1.02,0.94,1.06,0.962,0.981,1.08,1.23,0.907,0.84,0.429,0.126,1.07
HOP-62,0.917,0.799,0.867,0.598,0.409,1.22,1.14,0.935,0.837,0.889,1.13,1.03,0.866,0.813,0.636,0.581,0.565,0.223,0.143,1.17
IA-LM,–,–,–,–,–,1.06,0.999,1.02,0.416,0.627,0.342,0.378,0.449,0.135,0.416,0.312,0.378,0.276,0.257,1.28
NCI-H520,–,–,–,–,–,0.904,0.697,0.777,0.555,0.779,1.04,–,1.16,0.951,0.278,0.265,0.213,0.148,0.157,0.971
NCI-H522,1.08,0.728,0.7,0.737,0.692,–,–,–,–,–,–,–,–,–,–,–,–,–,–,–
NCI-H661,–,–,–,–,–,1.17,1.08,1.01,0.884,0.631,0.534,0.493,–,0.536,0.269,0.272,0.225,0.274,0.269,0.954
NCI-H1299,–,–,–,–,–,1.09,1.16,0.996,0.965,1.02,1.05,0.696,0.721,0.423,0.676,0.359,0.313,0.091,0.0817,1.09
NCI-H1563,–,–,–,–,–,0.942,0.97,0.95,0.899,1.18,1.18,1.31,1.34,1.22,0.66,0.564,0.584,0.597,0.558,0.948
